A word on the IC50: it is the concentration at which inhibition is half-maximal. A lower IC50 goes with greater potency in that assay.

The text below walks through data of patent US10167279B2 (NOVARTIS AG, priority 2014, dated 2019).

One assay addresses b-Raf (V600E) (Homo sapiens (Human), UniProt P15056, V600E). The assay is described as follows: In vitro Raf activity determination (Alpha Screen, phospho-MEK), b-Raf (V600E). Particulars: ATP 10 μM, 60 min pre-incubation, 3 hours reaction. It is filed as biochemical. The text has this: The activity of a compound according to the present invention can be assessed by well-known in vitro & in vivo methods. Raf inhibition data provided herein was obtained using the following procedures.
Sf9 cells co-expressing both proteins were lysed and subjected to immobilized nickel chromatography and eluted with Imidazole. A second column (StrepII binding column) was used and eluted with desthiobiotin. Protein Tags were removed using Prescission enzyme and the protein was further purified using a flowthrough step to remove tags.
Full length MEK1 with an inactivating K97R ATP binding site mutation is utilized as a RAF substrate. The MEK1 cDNA was subcloned with an N-terminal (his)6 tag into a vector for E. Coli expression. The MEK1 substrate was purified from E. Coli lysate by nickel affinity chromatography followed by anion exchange. The final MEK1 preparation was biotinylated (Pierce EZ-Link Sulfo-NHS-LC-Biotin) and concentrated.
The plate was incubated for 60 minutes at room temperature. […] The additions were carried out under dark conditions to protect the detection beads from light. A lid was placed on top of the plate and incubated for 1 hour at room temperature, after which the luminescence was read on a PerkinElmer Envision instrument.

The target in the next assay is C-Raf FL (Homo sapiens (Human), UniProt P04049, Y340E/Y341E). The assay is described as follows: In vitro Raf activity determination (Alpha Screen, phospho-MEK), C-Raf FL (full length, Y340E/Y341E). It is filed as biochemical. As to conditions: ATP 1 μM; 60 min pre-incubation; 1 hour reaction; column head does not say FL or TR. An outline of the steps: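 Read-out is AlphaScreen luminescence using rabbit anti-p-MEK with protein A beads after EDTA stop, with IC50 fitted by non-linear regression. Reaction: Sf9-derived C-Raf plus biotinylated E. coli MEK1 K97R substrate, pH 7.5 Tris/MgCl2/DTT buffer, compound preincubated 60 min at room temperature.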
Chain of C-Raf FL (P04049 whole entry Y340E/Y341E): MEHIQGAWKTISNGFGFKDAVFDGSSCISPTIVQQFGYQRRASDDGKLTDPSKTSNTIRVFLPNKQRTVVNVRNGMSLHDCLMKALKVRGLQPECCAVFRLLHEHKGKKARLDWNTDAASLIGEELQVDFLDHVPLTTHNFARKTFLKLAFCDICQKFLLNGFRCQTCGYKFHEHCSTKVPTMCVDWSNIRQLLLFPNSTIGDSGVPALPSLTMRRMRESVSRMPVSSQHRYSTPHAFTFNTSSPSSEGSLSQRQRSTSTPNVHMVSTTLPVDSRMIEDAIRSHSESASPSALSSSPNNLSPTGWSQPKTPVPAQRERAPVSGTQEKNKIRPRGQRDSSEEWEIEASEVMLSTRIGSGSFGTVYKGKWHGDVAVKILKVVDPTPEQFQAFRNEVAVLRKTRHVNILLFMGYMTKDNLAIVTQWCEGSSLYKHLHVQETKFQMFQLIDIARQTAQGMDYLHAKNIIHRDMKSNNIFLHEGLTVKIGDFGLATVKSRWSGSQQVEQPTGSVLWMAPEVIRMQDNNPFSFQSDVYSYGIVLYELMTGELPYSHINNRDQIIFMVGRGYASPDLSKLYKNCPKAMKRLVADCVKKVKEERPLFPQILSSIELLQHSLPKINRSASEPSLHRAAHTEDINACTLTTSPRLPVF
Chain of C-Raf FL (P63104 whole entry partner): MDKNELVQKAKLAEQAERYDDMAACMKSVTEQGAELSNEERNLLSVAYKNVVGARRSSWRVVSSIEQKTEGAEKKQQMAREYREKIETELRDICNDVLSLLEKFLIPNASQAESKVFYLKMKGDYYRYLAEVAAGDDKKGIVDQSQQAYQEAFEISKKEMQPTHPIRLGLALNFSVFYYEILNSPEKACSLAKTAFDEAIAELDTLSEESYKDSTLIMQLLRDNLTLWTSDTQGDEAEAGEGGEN

Chain of b-Raf (V600E) (P15056 whole entry V600E): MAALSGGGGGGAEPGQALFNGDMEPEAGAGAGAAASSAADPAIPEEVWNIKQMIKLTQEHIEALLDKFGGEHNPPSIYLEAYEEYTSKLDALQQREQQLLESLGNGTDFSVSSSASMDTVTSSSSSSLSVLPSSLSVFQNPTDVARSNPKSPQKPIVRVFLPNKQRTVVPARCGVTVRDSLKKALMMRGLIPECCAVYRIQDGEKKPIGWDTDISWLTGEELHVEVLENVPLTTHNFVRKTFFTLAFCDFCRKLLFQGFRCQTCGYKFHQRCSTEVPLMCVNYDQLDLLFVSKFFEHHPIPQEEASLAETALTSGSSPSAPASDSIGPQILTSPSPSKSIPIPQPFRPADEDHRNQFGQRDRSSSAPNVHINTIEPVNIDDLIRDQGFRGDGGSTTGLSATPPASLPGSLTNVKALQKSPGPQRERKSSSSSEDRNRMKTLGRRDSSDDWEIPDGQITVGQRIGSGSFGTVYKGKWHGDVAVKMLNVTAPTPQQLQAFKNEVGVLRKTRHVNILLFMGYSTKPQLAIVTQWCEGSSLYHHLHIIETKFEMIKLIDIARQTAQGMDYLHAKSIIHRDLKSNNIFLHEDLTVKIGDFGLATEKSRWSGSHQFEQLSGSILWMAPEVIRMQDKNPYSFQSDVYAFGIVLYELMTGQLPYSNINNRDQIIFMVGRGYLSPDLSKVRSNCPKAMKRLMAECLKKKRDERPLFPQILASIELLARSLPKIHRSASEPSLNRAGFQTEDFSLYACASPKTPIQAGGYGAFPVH

As to `COc1ncc(-c2cc(NC(=O)c3cc(C(F)(F)F)ccn3)ccc2C)cc1C1(O)COC1` [Example 84, N-(3-(5-(3-hydroxyoxetan-3-yl)-6-methoxypyridin-3-yl)-4-methylphenyl)-4-(trifluoromethyl)picolin-amide], the results for the 50% inhibitory concentration (IC50) on b-Raf (V600E) and at C-Raf FL were 2.21 nM and 0.351 nM, respectively.

For the compound `COc1ncc(-c2cc(NC(=O)c3cc(C(C)(C)N)cc(C(F)(F)F)c3)ccc2C)cc1C1(CF)COC1` [Example 108, 3-(2-aminopropan-2-yl)-N-(3-(5-(3-(fluoromethyl)oxetan-3-yl)-6-methoxypyridin-3-yl)-4-methylphenyl)-5-(trifluoromethyl)benzamide], the IC50 at b-Raf (V600E) stood at 1.8 nM; against C-Raf FL it was 0.424 nM.

Take `Cc1ncc(NC(=O)c2cccc(C(F)(F)F)c2)cc1-c1cnc(OCCO)c(C2(F)COC2)c1` [Example 37, N-(5′-(3-fluorooxetan-3-yl)-6′-(2-hydroxyethoxy)-2-methyl-[3,3′-bipyridin]-5-yl)-3-(trifluoromethyl)benzamide]: the IC50 was determined as 1.85 nM at b-Raf (V600E) and 0.354 nM against C-Raf FL.

As for `COc1cc(-c2cc(NC(=O)c3cccc(C(F)(F)F)c3)cnc2C)cc(C2COC2)c1` [Example 20, N-(5-(3-methoxy-5-(oxetan-3-yl)phenyl)-6-methylpyridin-3-yl)-3-(trifluoromethyl)-benzamide], the IC50 on b-Raf (V600E) amounted to 6.88 nM; on C-Raf FL, 0.628 nM.

Turning to `Cc1ncc(NC(=O)c2ccnc(C(C)(C)F)c2)cc1-c1cccc(C2(C)COC2)c1` [Example 69, 2-(2-fluoropropan-2-yl)-N-(6-methyl-5-(3-(3-methyloxetan-3-yl)phenyl)pyridin-3-yl)isonicotinamide], the IC50 against b-Raf (V600E) worked out at 5.1 nM; against C-Raf FL it was 0.895 nM.

In the case of `COc1ncc(-c2cc(NC(=O)c3ccnc(C(F)(F)F)c3)cnc2C)cc1C1(F)COC1` [Example 79, N-(5′-(3-fluorooxetan-3-yl)-6′-methoxy-2-methyl-[3,3′-bipyridin]-5-yl)-2-(trifluoromethyl)isonicotin-amide], the IC50 is 4 nM against b-Raf (V600E) and 0.493 nM against C-Raf FL.

For `Cc1ccc(NC(=O)c2ccnc(C(C)(C)C#N)c2)cc1-c1cnc(OC2CCOCC2)c(C2(O)COC2)c1` [Example 33, 2-(2-cyanopropan-2-yl)-N-(3-(5-(3-hydroxyoxetan-3-yl)-6-((tetrahydro-2H-pyran-4-yl)oxy)pyridin-3-yl)-4-methylphenyl)isonicotin-amide], the IC50 at b-Raf (V600E) was 2.14 nM; against C-Raf FL, 0.804 nM.

In the case of `CCOc1ncc(-c2cc(NC(=O)c3ccnc(C(C)(C)F)c3)ccc2C)cc1C1(O)COC1` [Example 122, N-(3-(6-ethoxy-5-(3-hydroxyoxetan-3-yl)pyridin-3-yl)-4-methylphenyl)-2-(2-fluoropropan-2-yl)isonicotinamide], the IC50 was found to be 1.79 nM against b-Raf (V600E) and 0.321 nM against C-Raf FL.

For the compound `COc1ncc(-c2cc(NC(=O)c3ccnc(C(F)(F)F)c3)ccc2C)cc1C1(O)COC1` [Example 71, N-(3-(5-(3-hydroxyoxetan-3-yl)-6-methoxypyridin-3-yl)-4-methylphenyl)-2-(trifluoromethyl)isonicotin-amide], the values for the IC50 against b-Raf (V600E) and on C-Raf FL were 2.84 nM and 0.351 nM, respectively.

Consider `COc1ncc(-c2cc(NC(=O)c3cc(C(C)(C)F)ccn3)cnc2C)cc1C1(O)COC1` [Example 94, 4-(2-fluoropropan-2-yl)-N-(5′-(3-hydroxyoxetan-3-yl)-6′-methoxy-2-methyl-[3,3′-bipyridin]-5-yl)picolinamide], for which the half-maximal inhibitory concentration (IC50) against b-Raf (V600E) is 31.8 nM; at C-Raf FL, 4.24 nM.

Turning to `COc1ncc(-c2cc(NC(=O)c3ccnc(C(F)(F)F)c3)ccc2C)cc1C1(CF)COC1` [Example 105, N-(3-(5-(3-(fluoromethyl)oxetan-3-yl)-6-methoxypyridin-3-yl)-4-methylphenyl)-2-(trifluoromethyl)isonicotin-amide], the IC50 at b-Raf (V600E) was found to be 0.323 nM; against C-Raf FL, 0.0915 nM.

As for `Cc1ncc(NC(=O)c2cccc(C(F)(F)F)c2)cc1-c1cnc(OC2CCOCC2)c(C2(O)COC2)c1` [Example 118, N-(5′-(3-hydroxyoxetan-3-yl)-2-methyl-6′-((tetrahydro-2H-pyran-4-yl)oxy)-[3,3′-bipyridin]-5-yl)-3-(trifluoromethyl)benzamide], the IC50 at b-Raf (V600E) came out at 3.89 nM; against C-Raf FL, 0.562 nM.

In the case of `CCOc1nnc(-c2cc(NC(=O)c3ccnc(C(C)(F)F)c3)cnc2C)cc1C1(C)COC1` [Example 127, 2-(1,1-difluoroethyl)-N-(5-(6-ethoxy-5-(3-methyloxetan-3-yl)pyridazin-3-yl)-6-methylpyridin-3-yl)isonicotinamide], the IC50 came out at 3.15 nM against b-Raf (V600E) and 0.987 nM at C-Raf FL.

Turning to `CCOc1ncc(-c2cc(NC(=O)c3cnnc(C(C)(C)C#N)c3)cnc2C)cc1C1(C)COC1` [Example 65, 6-(2-cyanopropan-2-yl)-N-(6′-ethoxy-2-methyl-5′-(3-methyloxetan-3-yl)-[3,3′-bipyridin]-5-yl)pyridazine-4-carboxamide], the IC50 against b-Raf (V600E) was determined as 7.13 nM; against C-Raf FL, 1.13 nM.

As to `COc1ncc(-c2cc(NC(=O)c3ccnc(C(C)(C)O)c3)ccc2C)cc1C1(O)COC1` [Example 73, N-(3-(5-(3-hydroxyoxetan-3-yl)-6-methoxypyridin-3-yl)-4-methylphenyl)-2-(2-hydroxypropan-2-yl)isonicotinamide], the IC50 at b-Raf (V600E) came out at 23.4 nM; against C-Raf FL, 3.09 nM.

On to `Cc1ccc(NC(=O)c2ccnc(C(C)(F)F)c2)cc1-c1cnc(-c2cnn(C)c2)c(C2(O)COC2)c1` [Example 144, 2-(1,1-difluoroethyl)-N-(3-(5-(3-hydroxyoxetan-3-yl)-6-(1-methyl-1H-pyrazol-4-yl)pyridin-3-yl)-4-methylphenyl)isonicotin-amide], for which the values for the IC50 at b-Raf (V600E) and against C-Raf FL were 1.67 nM and 0.364 nM, respectively.

With `COc1ncc(-c2cc(NC(=O)c3ccnc(C(C)(C)F)c3)ccc2C)cc1C1(O)COC1` [Example 99, 2-(2-fluoropropan-2-yl)-N-(3-(5-(3-hydroxyoxetan-3-yl)-6-methoxypyridin-3-yl)-4-methylphenyl)isonicotin-amide], the IC50 at b-Raf (V600E) turned out to be 2.67 nM; at C-Raf FL it was 0.415 nM.

Regarding `COc1ncc(-c2cc(NC(=O)c3ccnc(C(C)(F)F)c3)cnc2C)cc1C1(C#N)COC1` [Example 116, N-(5′-(3-cyanooxetan-3-yl)-6′-methoxy-2-methyl-[3,3′-bipyridin]-5-yl)-2-(1,1-difluoroethyl)isonicotin-amide], the IC50 against b-Raf (V600E) was found to be 6.22 nM; against C-Raf FL, 1.25 nM.

For the compound `Cc1ncc(NC(=O)c2cc(C(C)(C)C#N)ccn2)cc1-c1cccc(C2(C)COC2)c1` [Example 126, 4-(2-cyanopropan-2-yl)-N-(6-methyl-5-(3-(3-methyloxetan-3-yl)phenyl)pyridin-3-yl)picolinamide], the IC50 amounted to 7.74 nM against b-Raf (V600E) and 1.97 nM at C-Raf FL.

For `COc1ncc(-c2cc(NC(=O)c3ccnc(C(C)(C)C#N)c3)ccc2C)cc1C1(C=O)COC1` [Example 43, 2-(2-cyanopropan-2-yl)-N-(3-(5-(3-formyloxetan-3-yl)-6-methoxypyridin-3-yl)-4-methylphenyl)isonicotin-amide], the IC50 on b-Raf (V600E) was 10.2 nM; at C-Raf FL it was 2.67 nM.

As to `Cc1ccc(NC(=O)c2ccnc(C(C)(C)C#N)c2)cc1-c1cccc(C2COC2)c1` [Example 28, 2-(2-cyanopropan-2-yl)-N-(6-methyl-3′-(oxetan-3-yl)-[1,1′-biphenyl]-3-yl)isonicotinamide], the IC50 at b-Raf (V600E) and against C-Raf FL was 25000 nM throughout.

For `CCOc1nnc(-c2cc(NC(=O)c3cc(CN(C)C)cc(C(F)(F)F)c3)cnc2C)cc1C1(C)COC1` [Example 129, 3-((dimethylamino)methyl)-N-(5-(6-ethoxy-5-(3-methyloxetan-3-yl)pyridazin-3-yl)-6-methylpyridin-3-yl)-5-(trifluoromethyl)benzamide], the concentration for half-maximal inhibition (IC50) came to 23.4 nM on b-Raf (V600E) and 3.54 nM on C-Raf FL.

In the case of `COc1cc(-c2cc(NC(=O)c3cccc(C(F)(F)F)c3)ccc2C)cc(C2COC2)c1` [Example 21], the IC50 on b-Raf (V600E) turned out to be 2.73 nM; on C-Raf FL it was 0.373 nM.

With `CCOc1ncc(-c2cc(NC(=O)c3cc(C(C)(C)N)cc(C(F)(F)F)c3)cnc2C)cc1C1(F)COC1` [Example 130, 3-(2-aminopropan-2-yl)-N-(6′-ethoxy-5′-(3-fluorooxetan-3-yl)-2-methyl-[3,3′-bipyridin]-5-yl)-5-(trifluoromethyl)benzamide], the IC50 was found to be 20.1 nM against b-Raf (V600E) and 3.09 nM on C-Raf FL.

In the case of `COc1ncc(-c2cc(NC(=O)c3ccnc(C(C)(C)O)c3)cnc2C)cc1C1(F)COC1` [Example 81, N-(5′-(3-fluorooxetan-3-yl)-6′-methoxy-2-methyl-[3,3′-bipyridin]-5-yl)-2-(2-hydroxypropan-2-yl)isonicotinamide], the figures for the IC50 on b-Raf (V600E) and against C-Raf FL were 34.9 nM and 4.85 nM, respectively.

In the case of `CCOc1ncc(-c2cc(NC(=O)c3cnnc(C(F)(F)F)c3)ccc2C)cc1C1(C)COC1` [Example 67, N-(3-(6-ethoxy-5-(3-methyloxetan-3-yl)pyridin-3-yl)-4-methylphenyl)-6-(trifluoromethyl)pyridazine-4-carboxamide], the half-maximal inhibitory concentration (IC50) is 0.304 nM on b-Raf (V600E) and 0.078 nM on C-Raf FL.
